Test results taken from patent publication US9271948B2, “Agent for improving vesicourethral dyssynergia” (TAIHO PHARMACEUTICAL CO., LTD., priority 2013, dated 2016).

Tests used:
Format in all cases: in vivo
[1] = test system: dysuria model rat (STZ-treated female Wistar rats); experiment: Effects of cholinergic agent and α1 blocker on vesicourethral dyssynergia of dysuria model rat (Comparative Example 2); details: STZ model four weeks after preparation; bethanechol 1 mg/kg i.v., tamsulosin 0.3 mg/kg i.v.; under urethane anesthesia; vs control (physiological saline)
Experimental: The effects of a cholinergic agent (detrusor contracting agent: bethanechol) and an al blocker (urethra relaxation agent: tamsulosin) on vesicourethral dyssynergia were evaluated.
The dysuria models in the present example were prepared by treating 10-week-old female Wistar rats with STZ (65 mg/kg, i.p.). The Sham group was prepared by treating the rats with a citric acid buffer solution instead of STZ. Four weeks after the preparation of the models, the intravesical and urethral pressure was measured under urethane anesthesia, thereby evaluating the effects of the test drugs (vehicle: physiological saline solution, bethanechol 1 mg/kg i.v., and tamsulosin 0.3 mg/kg i.v.) with regard to the cooperation of the bladder and the urethra.

[2] = test system: dysuria model rat (STZ-treated female Wistar rats); experiment: Effect of ameliorating vesicourethral dyssynergia in dysuria model rat (Test Example 1); details: STZ 65 mg/kg i.p. model; 30 mg/kg p.o. twice a day for four weeks starting four weeks after model preparation; measured under urethane anesthesia; control (6% Gelucire) 3.7±0.7
Experimental: The effect of 3-(15-hydroxypentadecyl)-2,4,4-trimethyl-2-cyclohexene-1-one (hereinafter referred to as “Compound 1 of the present invention”) on vesicourethral dyssynergia was evaluated.
The dysuria models in this example were prepared by treating 10-week-old female Wistar rats with streptozotocin (hereinafter referred to as STZ; in an amount of 65 mg/kg, i.p.). The Sham group was prepared by treating the rats with a citric acid buffer solution instead of STZ. The test drugs (vehicle: 6% Gelucire, Compound 1 of the present invention 30 mg/kg) were orally administered to each group after four weeks from the preparation of the models (at a time dysuria is assumed to be developed) twice a day for four weeks. On the day following the final administration, the intravesical and urethral pressure was measured under urethane anesthesia, thereby evaluating the cooperation of the bladder and the urethra.
Further, in contrast to the control group receiving vehicle (6% Gelucire) having a time lag of 3.7±0.7 seconds, the time lag in the group receiving Compound 1 of the present invention was reduced to 2.0±0.4 seconds, showing a significant effect of ameliorating vesicourethral dyssynergia.

[3] = test system: dysuria model rat (STZ-treated female Wistar rats); experiment: Effect on maximum voiding quantity in dysuria model rat (Test Example 2); details: 30 mg/kg p.o. twice a day for four weeks, under urethane anesthesia, Sham 1.45 ± 0.14, Control 2.25 ± 0.68, *p < 0.05 vs. control
Experimental: The dysuria models in this example were prepared in the same manner as in Test Example 1 by treating 10-week-old female Wistar rats with STZ (65 mg/kg, i.p.). The test drugs (vehicle: 6% Gelucire, Compound 1 of the present invention 30 mg/kg) were orally administered to each group after four weeks from the preparation of the models (at a time dysuria is assumed to be developed) twice a day for four weeks. On the day following the final administration, the maximum voiding quantity was measured under urethane anesthesia.

[4] = test system: model rat having spinal cord injury (female Wistar rats); experiment: Effect on voiding dysfunction based on vesicourethral dyssynergia in spinal cord injury model rat (Test Example 3); details: spinal cord injury model (Th8-9); 250 mg/kg p.o. once a day for four weeks; vs control group (6% Gelucire)
Experimental: The effect of Compound 1 of the present invention on dysuria was evaluated using a model rat having spinal cord injury, which is a typical disease causing dysuria due to vesicourethral dyssynergia.
The dysuria models in this example were prepared by placing a 40 g weight on the spinal cord in the eighth to ninth thoracic vertebrae (Th8-9) of 7-week-old female Wistar rats for 30 minutes.
The test drugs (vehicle: 6% Gelucire, Compound 1 of the present invention 250 mg/kg) were orally administered to each group from the day following the preparation of the models once a day for four weeks. On the day following the final administration, cystometry was performed in a wakeful state, thereby evaluating the voiding function (micturition efficiency).

Compound	effect on extension of the time lag between the bladder contraction and the urethra relaxation [1]	time lag between the bladder contraction and the urethra relaxation [2]	Maximum voided volme [3]	micturition efficiency (cystometry in a wakeful state) [4]
CCOc1ccccc1OCCN[C@H](C)Cc1ccc(OC)c(S(N)(=O)=O)c1 [tamsulosin]	no effects			
CC(C[N+](C)(C)C)OC(N)=O (centres unmarked) [Bethanechol, bethanechol]	no effects			
CC1=C(CCCCCCCCCCCCCCCO)C(C)(C)CCC1=O [Compound 1 of the present invention, 3-(15-hydroxypentadecyl)-2,4,4-trimethyl-2-cyclohexene-1-one]		2.0 ± 0.4 s	4.44 ± 0.85* mL	significant increase in micturition efficiency
